Reference: US11021481B2, “Substituted isoindolin-1-ones and 2,3-dihydro-1h-pyrrolo[3,4-c]pyridin-1-ones as HPK1 antagonists” (Nimbus Saturn, Inc., priority 2019, dated 2021)

The compounds below were run against HPK1 (Homo sapiens (Human), UniProt Q92918) (assay: HPK1 biochemical enzyme assay (microfluidic mobility shift assay)). Details: 1.5 nM HPK1, ATP 1 mM final, 30 min preincubation, 60 min at RT, Caliper EZ Reader; read-out: HPK1 1000UMATP caliper IC50.
HPK1, sequence (Q92918 whole entry): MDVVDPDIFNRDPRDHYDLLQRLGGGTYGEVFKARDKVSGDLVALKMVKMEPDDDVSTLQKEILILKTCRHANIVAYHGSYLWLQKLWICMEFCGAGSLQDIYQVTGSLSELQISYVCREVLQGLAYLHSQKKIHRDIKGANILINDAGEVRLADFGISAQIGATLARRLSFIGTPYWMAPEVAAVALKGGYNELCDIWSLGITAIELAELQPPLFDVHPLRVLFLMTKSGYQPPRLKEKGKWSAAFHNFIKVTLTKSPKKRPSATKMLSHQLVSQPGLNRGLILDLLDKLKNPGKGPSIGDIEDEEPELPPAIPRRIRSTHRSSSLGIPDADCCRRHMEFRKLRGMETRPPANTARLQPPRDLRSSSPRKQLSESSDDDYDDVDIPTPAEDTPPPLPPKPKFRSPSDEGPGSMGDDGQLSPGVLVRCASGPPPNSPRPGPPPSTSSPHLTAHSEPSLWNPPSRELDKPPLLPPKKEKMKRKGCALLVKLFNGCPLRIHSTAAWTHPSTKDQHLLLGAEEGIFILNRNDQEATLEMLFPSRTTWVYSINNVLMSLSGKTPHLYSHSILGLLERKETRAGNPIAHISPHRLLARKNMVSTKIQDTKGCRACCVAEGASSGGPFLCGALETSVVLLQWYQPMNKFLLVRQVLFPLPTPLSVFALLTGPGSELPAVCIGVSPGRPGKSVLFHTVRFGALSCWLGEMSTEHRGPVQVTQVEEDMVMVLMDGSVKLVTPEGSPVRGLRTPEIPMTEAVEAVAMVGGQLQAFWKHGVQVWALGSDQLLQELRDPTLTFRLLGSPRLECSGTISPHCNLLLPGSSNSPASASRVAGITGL
Summary of the method: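 Ten-point compound titrations (top 3 μM final) preincubated 30 min with HPK1 and substrate, then reaction started with 1 mM ATP and 1 μM substrate, 5 mM MgCl2. After 60 min at RT, reaction terminated and product measured by microfluidic mobility shift.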
For CNC1CCN(c2ccc(Nc3ccc(-c4cnc5cccnn45)c4c3C(=O)NC4)nc2)CC1 [I-91, 4-imidazo[1,2-b]pyridazin-3-yl-7-[[5-[4-(methylamino)-1-piperidyl]-2-pyridyl]amino] isoindolin-1-one], the IC50 was < 100 nM.
In the case of C[C@@H](c1ccc(Nc2ccc(-c3cnc4cc(F)ccn34)c3c2C(=O)NC3)nc1)N1CCOCC1 (single isomer, unassigned) [I-640], the IC50 is reported as < 100 nM.
With Cc1cccn2c(-c3ncc(Nc4ccc(N5CCC[C@H](C(C)(C)O)C5)cn4)c4c3CNC4=O)cnc12 [I-241, 7-[[5-[(3S)-3-(1-hydroxy-1-methyl-ethyl)-1-piperidyl]-2-pyridyl]-amino]-4-(8-methylimidazo [1,2-a]pyridin-3-yl)-2,3-dihydropyrrolo [3,4-c]pyridin-1-one] the IC50 was < 100 nM.
CC(C)(O)[C@@H]1CCCN(c2ccc(Nc3ccc(-c4cnc5cnccn45)c4c3C(=O)NC4)nc2)C1 [I-311, (R)-7-((5-(3-(2-hydroxypropan-2-yl)piperidin-1-yl)pyridin-2-yl)amino)-4-(imidazo[1,2-a]pyrazin-3-yl)isoindolin-1-one] was tested, and the IC50 was < 100 nM.
For Cc1nc2ccccn2c1-c1ccc(Nc2ccc(N3CCN(C)CC3)cn2)c2c1CNC2=O [I-50, 4-(2-methylimidazo [1,2-a]pyridin-3-yl-)-7-[[5-(4-methylpiperazin-1-yl)-2-pyridyl]amino] isoindolin-1-1-one], the IC50 was 100 to 1000 nM.
Cn1ccc2c(-c3ccc(Nc4ccc(C5(C)CCNCC5)cn4)c4c3CNC4=O)ccnc21 [I-272, 4-(1-methyl-1H-pyrrolo[2,3-b]pyridin-4-yl)-7-((5-(4-methylpiperidin-4-yl)pyridin-2-yl)amino)isoin-dolin-1-one] was tested, and the IC50 was < 100 nM.
Compound CN1CCN(c2ccc(Nc3cnc(-c4cccc5[nH]ccc45)c4c3C(=O)NC4)nc2)CC1 [I-252, 4-(1H-indol-4-yl)-7-((5-(4-methylpiperazin-1-yl)pyridin-2-yl)amino)-2,3-dihydro-1H-pyrrolo[3,4-c]pyridin-1-one] has an IC50 of 100 to 1000 nM.
For CNCc1nc(Nc2ccc(-c3cnc4cc(F)ccn34)c3c2C(=O)NC3)ccc1C1CCOC1 (stereo in doubt) [I-723, (R)-4-(7-fluoroimidazo [1,2-a]pyridin-3-yl)-7-((6-((methyl-amino)methyl)-5-(tetrahydrofuran-3-yl)pyridin-2-yl)amino)isoin-dolin-1-one], the IC50 was < 100 nM.
CN1CCCc2c(-c3ccc(Nc4ccc(N5CCNCC5)cn4)c4c3CNC4=O)ccnc21 [I-118, 4-(8-methyl-6.7-dihydro-5H-1,8-naphthyridin-4-yl)-7-[(5-piperazin-1-yl-2-pyridyl)amino] isoindolin-1-one] showed an IC50 of 100 to 1000 nM.
O=C1NCc2c(-c3cnn4c3CCC(C(=O)NC3CC3)C4)ccc(Nc3ccc(N4CCC(O)CC4)cn3)c21 (stereo not drawn) [I-150, N-cyclopropyl-3-[7-[[5-(4-hydroxy-1-piperidyl)-2-pyridyl]amino]-1-oxo-isoindolin-4-yl]-4,5,6,7-tetrahydropyra-zolo[1,5-a]pyridine-6-carboxamide] gave an IC50 of 100 to 1000 nM.
In the case of O=C1NCc2c(-c3cnc4cnccn34)ccc(Nc3ccc(N4CC5(COC5)C4)cn3)c21 [I-312, 7-((5-(2-oxa-6-azaspiro[3,3]heptan-6-yl)pyridin-2-yl)amino)-4-(imidazo[1,2-a]pyrazin-3-yl)isoindolin-1-one], the IC50 is reported as < 100 nM.
For CN(C)CCOC1(c2ccc(Nc3ccc(-c4cnc5cc(F)ccn45)c4c3C(=O)NC4)nc2)CCOCC1 [I-669, 7-((5-(4-(2-(dimethylami-no)ethoxy)tetra-hydro-2H-pyran-4-yl)pyridin-2-yl)amino)-4-(7-fluoroimidazo [1,2-a]pyridin-3-yl)isoindolin-1-one], the IC50 was < 100 nM.
With O=C1NCc2c(-c3ccnc4c3ccn4C(F)F)ncc(Nc3ccc(N4CCC(O)CC4)cn3)c21 [I-200, 4-[1-(difluorometh-yl)pyrrolo[2,3-b]pyridin-4-yl]-7-[[5-(4-hydroxy-1-piperidyl)-2-pyridyl]-amino]-2,3-dihxdropyrrolo [3,4-c]pyridin-1-one] the IC50 was < 100 nM.
In the case of Cc1ccc2c(-c3ccc(Nc4ccc(N5CCNCC5)cn4)c4c3CNC4=O)cnn2c1 [I-89, 4-(6-methylpyrazolo[1,5-a]pyridin-3-yl)-7-[(5-piperazin-1-yl-2-pyridyl)amino] isoindolin-1-one], the IC50 is reported as < 100 nM.
For CCN(CC)Cc1nc(Nc2ccc(-c3cnc4cc(F)ccn34)c3c2C(=O)NC3)ccc1[C@@H]1CCOC1 [I-511, (S)-7-((6-((diethylamino)methyl)-5-(tetrahydrofuran-3-yl)pyridin-2-yl)amino)-4-(7-fluoroimidazo [1,2-a]pyridin-3-yl)isoindolin-1-one], the IC50 was < 100 nM.
For Cc1ccn2c(-c3ccc(Nc4ccc([C@@H]5CCOC5)cn4)c4c3CNC4=O)cnc2c1 [I-192, (S)-4-(7-methylimidazo [1,2-a]pyridin-3-yl)-7-((5-(tetrahydro-furan-3-yl)pyridin-2-yl)amino)isoin-dolin-1-one], the IC50 was < 100 nM.
For O=C1NCc2c(-c3c[nH]c4ccccc34)ncc(Nc3ccc(N4CC5CCC(C4)O5)cn3)c21 [I-10, 4-(1H-indol-3-yl)-7-[[5-(8-oxa-3-azabicyclo [3.2.1]octan-3-yl)-2-pyridyl]amino]-2,3-dihydropyrrolo [3,4-c]pyridin-1-one], the IC50 was > 1000 nM.
For COCCN(C)c1ccc(Nc2ccc(-c3cnc4cc(F)ccn34)c3c2C(=O)NC3)nc1 [I-235, 4-(7-fluoroimidazo [1,2-a]pyridin-3-yl)-7-[[5-[2-methoxyethyl (methyl)amino]-2-pyridyl]amino] isoindolin-1-one], the IC50 was < 100 nM.
For CN(CC1(O)CCCN(c2ccc(Nc3ccc(-c4cnc5cc(F)ccn45)c4c3C(=O)NC4)nc2)C1)C1CC1 (stereo not drawn) [I-491, 7-[[5-[3-[[cyclopropyl (methyl)amino]methyl]-3-hydroxy-1-piperidyl]-2-pyridyl]amino] 4-(7-fluoroimidazo [1,2-a]pyridin-3-yl)isoindolin-1-one], the IC50 was < 100 nM.
O=C1NCc2c(-c3cnc4cc(F)ccn34)ccc(Nc3ccc(C4CCOC4)c(N4CCNCC4)n3)c21 (stereo in doubt) [I-772, (S)-4-(7-fluoroimidazo [1,2-a]pyridin-3-yl)-7-((6-(piperazin-1-yl)-5-(tetrahydrofuran-3-yl)pyridin-2-yl)amino)isoin-dolin-1-one] was tested, and the IC50 was < 100 nM.
In the case of “4-(6- methylpyrazol o[1,5-a]pyridin-3- yl)-7-[[5- (morpholino- methyl)-2- pyridyl]amino] isoindolin-1-one [I-469]”, the IC50 is reported as < 100 nM.
In the case of N#Cc1ccn2c(-c3ccc(Nc4ccc(N5CCNCC5)cn4)c4c3CNC4=O)cnc2c1 [I-120], the IC50 is reported as < 100 nM.
In the case of O=C1NCc2c(-c3cnc4cc(F)ccn34)ccc(Nc3ccc([C@H]4CCOC4)c(CN4CC[C@H](F)C4)n3)c21 (stereo in doubt) [I-735, 4-(7-fluoroimidazo [1,2-a]pyridin-3-yl)-7-((6-(((S)-3-fluoropyrrol-idin-1-yl)methyl)-5-((S)-tetrahydrofuran-3-yl)pyridin-2-yl)amino)isoin-dolin-1-one], the IC50 is reported as < 100 nM.
For Cn1cnc2nccc(-c3ccc(Nc4ccc(N5CCNCC5)cn4)c4c3CNC4=O)c21 [I-114, 4-(1-methylimidazo [4,5-b]pyridin-7-yl)-7-[(5-piperazin-1-yl-2-pyridyl)amino] isoindolin-1-one], the IC50 was > 1000 nM.
In the case of Cc1cccn2c(-c3ccc(Nc4ccc(N5CCN(C)CC5)cn4)c4c3CNC4=O)cnc12 [I-52, 4-(8-methylimidazo [1,2-a]pyridin-3-yl-)-7-[[5-(4-methylpiperazin-1-yl)-2-pyridyl]amino] isoindolin-1-1-one], the IC50 is reported as < 100 nM.
In the case of O=C1NCc2c(-c3cnc4ncccn34)ccc(Nc3ccc(N4CCNCC4)cn3)c21 [I-87, 4-imidazo[1,2-a]pyrimidin-3-yl-7-[(5-piperazin-1-yl-2-pyridyl)amino] isoindolin-1-one], the IC50 is reported as < 100 nM.
C[C@@H](c1ccc(Nc2ccc(-c3cnc4cc(F)ccn34)c3c2C(=O)NC3)nc1)N(C)C [I-520, (S)-7-((5-(1-(dimethylami-no)ethyl)pyridin-2-yl)amino)-4-(7-fluoroimidazo [1,2-a]pyridin-3-yl)isoindolin-1-one] was tested, and the IC50 was < 100 nM.
C[C@@H](c1ccc(Nc2ccc(-c3cnc4cc(F)ccn34)c3c2C(=O)NC3)nc1)N1CCC(O)CC1 [I-526, (S)-4-(7-fluoroimidazo [1,2-a]pyridin-3-yl)-7-((5-(l-(4-hydroxypiperidin-1-yl)ethyl)pyridin-2-yl)amino)isoin-dolin-1-one] was tested, and the IC50 was < 100 nM.
In the case of Cc1cccn2c(-c3ccc(Nc4ccc(N5CCC(O)(CN6CCN(C)CC6)CC5)cn4)c4c3CNC4=O)cnc12 [I-402, 7-((5-(4-hydroy-4-((4-methylpiperazin-1-yl)methyl)piper-idin-1-yl)pyridin-2-yl)amino)-4-(8-methylimidazo [1,2-a]pyridin-3-yl)isoindolin-1-one], the IC50 is reported as < 100 nM.
For O=C1NCc2c(-c3cnc4cccnn34)ncc(Nc3ccc(N4CCC(O)CC4)cn3)c21 [I-199, 7-[[5-(4-hydroxy-1-piperidyl)-2-pyripyl]amino]-4-imidazo[1,2-b]pyridazin-3-yl-2,3-dihydropyrrolo [3,4-c]pyridin-1-one], the IC50 was 100 to 1000 nM.
With Cc1ccn2c(-c3ccc(Nc4ccc(N5CC[C@H](F)[C@@H](O)C5)cn4)c4c3CNC4=O)cnc2c1F [I-584, 7-((5-((3S.4S)-4-fluoro-3-hydroxypiperidin-1-yl)pyridin-2-yl)amino)-4-(8-fluoro-7-methylimidazo [1,2-a]pyridin-3-yl)isoindolin-1-one] the IC50 was < 100 nM.
O=C1NCc2c(-c3cnn4c3CCCC4)ncc(Nc3ccc(N4CCC(O)CC4)cn3)c21 [I-330, 7-((5-(4-hydroxypiperidin-1-yl)pyridin-2-yl)amino)-4-(4,5,6,7-tetrahydropyra-zolo[1,5-a]pyridin-3-yl)-2,3-dihydro-1H-pyrrolo[3,4-c]pyridin-1-one] gave an IC50 of 100 to 1000 nM.
With Cn1ccc2c(-c3ncc(Nc4ccc(N5CCC[C@H](O)C5)cn4)c4c3CNC4=O)ccnc21 [I-179, 7-[[5-[(3S)-3-hydroxy-1-piperidyl]-2-pyridyl]amino]-4-(1-methylpyrrolo [2,3-b]pyridin-4-yl)-2,3-dihydropyrrolo [3,4-c]pyridin-1-one] the IC50 was < 100 nM.
